# Experimental data from the NIST ThermoML archive (doi:10.1016/j.jct.2005.01.015).
# Numbers after ± are expanded uncertainties.
# Test: activity coefficient (dimensionless); of the first substance listed, at infinite dilution; xn = mol fraction of the nth substance listed
# Settings: 101 kPa, Liquid, Chromatography, x1 = 0
SMILES,activity coefficient (298.15 K),activity coefficient (303.15 K),activity coefficient (308.15 K)
C#CCCCCC [1-heptyne] + CCCCn1cc[n+](C)c1.COCCOCCOS(=O)(=O)[O-],7.37 ± 0.34,7.22 ± 0.33,7.42 ± 0.34
C#CCCCC [1-hexyne] + CCCCn1cc[n+](C)c1.COCCOCCOS(=O)(=O)[O-],4.83 ± 0.22,4.74 ± 0.22,4.91 ± 0.22
C#CCCCCCC [1-octyne] + CCCCn1cc[n+](C)c1.COCCOCCOS(=O)(=O)[O-],11.7 ± 0.5,11.4 ± 0.5,11.6 ± 0.5
c1ccccc1 [benzene] + CCCCn1cc[n+](C)c1.COCCOCCOS(=O)(=O)[O-],2.04 ± 0.09,2.02 ± 0.09,2.03 ± 0.09
C1CCCCCC1 [cycloheptane] + CCCCn1cc[n+](C)c1.COCCOCCOS(=O)(=O)[O-],41.8 ± 1.9,38.2 ± 1.8,36.4 ± 1.7
C1CCCCC1 [cyclohexane] + CCCCn1cc[n+](C)c1.COCCOCCOS(=O)(=O)[O-],34.4 ± 1.6,31.5 ± 1.5,30.3 ± 1.4
C1CCCC1 [cyclopentane] + CCCCn1cc[n+](C)c1.COCCOCCOS(=O)(=O)[O-],22.7 ± 1.1,20.9 ± 1,20.5 ± 0.9
CCCCCCC [heptane] + CCCCn1cc[n+](C)c1.COCCOCCOS(=O)(=O)[O-],111 ± 5.2,100 ± 4.7,94.5 ± 4.4
C=CCCCC [hex-1-ene] + CCCCn1cc[n+](C)c1.COCCOCCOS(=O)(=O)[O-],35.1 ± 1.6,32.9 ± 1.5,31.4 ± 1.5
CCCCCC [hexane] + CCCCn1cc[n+](C)c1.COCCOCCOS(=O)(=O)[O-],80.9 ± 3.8,74.1 ± 3.5,71.1 ± 3.3
CO [methanol] + CCCCn1cc[n+](C)c1.COCCOCCOS(=O)(=O)[O-],0.345 ± 0.035,0.342 ± 0.035,0.337 ± 0.035
C=CCCCCCC [oct-1-ene] + CCCCn1cc[n+](C)c1.COCCOCCOS(=O)(=O)[O-],74.9 ± 3.5,69.9 ± 3.3,67.1 ± 3.1
CCCCCCCC [octane] + CCCCn1cc[n+](C)c1.COCCOCCOS(=O)(=O)[O-],156 ± 7.3,140 ± 6.6,130 ± 6.1
CCCCC [pentane] + CCCCn1cc[n+](C)c1.COCCOCCOS(=O)(=O)[O-],61.7 ± 2.9,57.1 ± 2.7,54.9 ± 2.6
ClC(Cl)(Cl)Cl [tetrachloromethane] + CCCCn1cc[n+](C)c1.COCCOCCOS(=O)(=O)[O-],2.81 ± 0.13,2.85 ± 0.13,2.91 ± 0.13
Cc1ccccc1 [toluene] + CCCCn1cc[n+](C)c1.COCCOCCOS(=O)(=O)[O-],3.72 ± 0.17,3.69 ± 0.17,3.66 ± 0.17
